Data published in patent publication US20160031925A1, “AZITHROMYCIN ANTIMICROBIAL DERIVATIVES WITH NON-ANTIBIOTIC PHARMACEUTICAL EFFECT” (priority 2013, published 2016).

Key:
human airway epithelia = conditions: reference 6; cited from earlier work
[1] = system: Staphylococcus aureus ATTC 6538; experiment: Antimicrobial disk susceptibility test (CLSI M2-A9), S. aureus; assay type: cell-based
Description: (§1) Test for the antimicrobial activity of the novel compounds may be performed according to the standards of Clinical and Laboratory Standards Institute, Performance Standards for Antimicrobial Disk Susceptibility Tests; approved Standard; M2-A), vol. 26 NO. 1 9th ed.
(§2) A test for the antimicrobial activity of the novel compounds were performed according to the standards of Clinical and Laboratory Standards Institute, Performance Standards for Antimicrobial Disk Susceptibility Tests; approved Standard; M2-A), vol. 26 NO. 1 9th ed. The samples were dissolved in 10 ml of sterile Milli-Q water by magnetic stirring overnight at 20° C.
(§3) Two doses of the samples were tested in duplicate, a) and b). The size of the inhibition zones were measured in mm after incubation.

[2] = system: Klebsiella pneumonia ATCC 35657; experiment: Antimicrobial disk susceptibility test (CLSI M2-A9), K. pneumonia; assay type: cell-based
Description: as §1, §2, §3

[3] = system: Pseudomonas aeruginosa ATCC 9027; experiment: Antimicrobial disk susceptibility test (CLSI M2-A9), P. aeruginosa; assay type: cell-based
Description: as §1, §2, §3

[4] = system: Escherichia coli ATCC 8739; experiment: Antimicrobial disk susceptibility test (CLSI M2-A9), E. coli; assay type: cell-based
Description: as §1, §2, §3

## penicillin
Human airway epithelia
  effect on transepithelial electrical resistance / processing of tight junction proteins: not observed

## CC[C@H]1OC(=O)[C@H](C)[C@@H](O[C@H]2C[C@@](C)(OC)[C@@H](O)[C@H](C)O2)[C@H](C)[C@@H](O[C@@H]2O[C@H](C)C[C@H](N(C)C)[C@H]2O)[C@](C)(O)C[C@@H](C)CN(C)[C@H](C)[C@@H](O)[C@]1(C)O [azithromycin]
Human airway epithelia
  effect on transepithelial electrical resistance / processing of tight junction proteins: may increase the transepithelial electrical resistance

## CC[C@H]1OC(=O)[C@H](C)[C@@H](O[C@H]2C[C@@](C)(OC)[C@@H](O)[C@H](C)O2)[C@H](C)[C@@H](O[C@@H]2O[C@H](C)C[C@H](N(C)C)[C@H]2O)[C@](C)(O)C[C@@H](C)C(=O)[C@H](C)[C@@H](O)[C@]1(C)O [erythromycin]
Human airway epithelia
  effect on transepithelial electrical resistance / processing of tight junction proteins: not observed

## CCC1OC(=O)C(C)C(OC2CC(C)(OC)CC(C)O2)C(C)C(OC2OC(C)CC(N(C)C)C2C)C(C)(O)CC(C)CN(C)C(C)C(O)C1(C)O (stereo not shown) [PP007]
[1]; 5 μg/disk, duplicate a)
  size of the inhibition zone, S. aureus a): <1 mm
[1]; 5 μg/disk, duplicate b)
  size of the inhibition zone, S. aureus b): <1 mm
[1]; 10 μg/disk, duplicate a)
  size of the inhibition zone, S. aureus a): <1 mm
[1]; 10 μg/disk, duplicate b)
  size of the inhibition zone, S. aureus b): <1 mm
[2]; 5 μg/disk, duplicate a)
  size of the inhibition zone, K. pneumonia a): <1 mm
[2]; 5 μg/disk, duplicate b)
  size of the inhibition zone, K. pneumonia b): <1 mm
[2]; 10 μg/disk, duplicate a)
  size of the inhibition zone, K. pneumonia a): <1 mm
[2]; 10 μg/disk, duplicate b)
  size of the inhibition zone, K. pneumonia b): <1 mm
[3]; 5 μg/disk, duplicate a)
  size of the inhibition zone, P. aeruginosa a): <1 mm
[3]; 5 μg/disk, duplicate b)
  size of the inhibition zone, P. aeruginosa b): <1 mm
[3]; 10 μg/disk, duplicate a)
  size of the inhibition zone, P. aeruginosa a): <1 mm
[3]; 10 μg/disk, duplicate b)
  size of the inhibition zone, P. aeruginosa b): <1 mm
[4]; 5 μg/disk, duplicate a)
  size of the inhibition zone, E. coli a): <1 mm
[4]; 5 μg/disk, duplicate b)
  size of the inhibition zone, E. coli b): <1 mm
[4]; 10 μg/disk, duplicate a)
  size of the inhibition zone, E. coli a): <1 mm
[4]; 10 μg/disk, duplicate b)
  size of the inhibition zone, E. coli b): <1 mm
